According to US7223766B2, “Bi-cyclic pyrimidine inhibitors of TGFβ” (Scios, Inc., priority 2003, dated 2007):

Biological target: T1, TGF R1 kinase (Homo sapiens, UniProt P36897)
T1 sequence (P36897 34-503): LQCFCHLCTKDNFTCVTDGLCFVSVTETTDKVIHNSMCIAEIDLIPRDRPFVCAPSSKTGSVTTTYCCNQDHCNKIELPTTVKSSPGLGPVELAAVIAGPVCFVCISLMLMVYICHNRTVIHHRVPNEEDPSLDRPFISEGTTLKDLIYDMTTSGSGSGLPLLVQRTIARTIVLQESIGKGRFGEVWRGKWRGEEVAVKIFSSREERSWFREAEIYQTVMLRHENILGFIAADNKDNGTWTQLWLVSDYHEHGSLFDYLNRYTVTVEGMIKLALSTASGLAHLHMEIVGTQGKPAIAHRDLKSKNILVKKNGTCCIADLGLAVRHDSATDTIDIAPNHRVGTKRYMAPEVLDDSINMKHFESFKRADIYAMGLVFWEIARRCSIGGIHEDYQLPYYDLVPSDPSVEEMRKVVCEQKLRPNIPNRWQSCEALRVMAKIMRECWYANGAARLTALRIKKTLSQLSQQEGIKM
Experiment: TGF-β inhibition assay: phosphorylation of the substrate casein by TGF R1 kinase
Assay type: biochemical
Details: table names no assay; casein assay of Example 2: 2.5 μM ATP, 100 μM casein, 6.4 nM TGF R1 kinase
Description: Invention compounds were tested for their abilities to inhibit the phosphorylation of the substrate casein. The assay was conducted as follows: Compound dilutions and reagents were prepared fresh daily. Compounds were diluted from DMSO stock solutions to 2 times the desired assay concentration, keeping final DMSO concentration in the assay less than or equal to 1%. TGF RI kinase was diluted to 4 times the desired assay concentration in buffer and DTT. ATP and casein were diluted into 4× reaction buffer, and gamma-^32P-ATP was added at 50 μCi/mL.
The assay was performed by adding 10 μl of the enzyme to 20 μl of the compound solution. The reaction was initiated by the addition of 10 μl of the casein/ATP mix. Final assay conditions included 2.5 μM ATP, 100 μM casein, 6.4 nM TGF R1 kinase, and […] in 20 mM Tris buffer, pH 7.5. The reactions were incubated at room temperature for 45 minutes. The reactions were then stopped by transferring 23 μl of reaction mixture onto a phosphocellulose 96-well filter plate, which had been pre-wetted with 15 μl of 0.25M H3PO4 per well. After 5 minutes, the wells were washed 4× with 75 mM H3PO4 and once with 95% ethanol. The plate was dried, scintillation cocktail was added to each well, and the wells were counted in a Packard TopCount microplate scintillation counter. The ability of a compound to inhibit the enzyme was determined by comparing the counts obtained in the presence of the compound to those of the positive control (in the absence of compound) and the negative control (in the absence of enzyme).
In both of the assays referenced above, IC50 values can be determined with curve-fitting plots available with common software packages. Approximate IC50 values can be calculated using formula: IC50 (app)=A×i/(1−A) where A=fractional activity and i=total inhibitor concentration.

| Compound | IC50 [nM] |
| --- | --- |
| c1ccc(-c2nc(Nc3ccncc3)c3cc[nH]c3n2)cc1 [Compound 2, 4-(4-aminopyridyl)-2-phenyl pyrollo[2,3d]pyrimidine] | 9400 |
| O=C(NCCN1CCCC1)c1cnccc1Nc1nc(-c2cc(Cl)ccc2F)nc2c1CCC2 [Compound 75] | 712 |
| O=C(NCCCN1CCOCC1)c1cnccc1Nc1nc(-c2cc(Cl)ccc2F)nc2c1CCC2 [Compound 70] | 529 |
| C[C@@H](O)CNC(=O)c1cnccc1Nc1nc(-c2cc(Cl)ccc2F)nc2c1CCC2 [Compound 55] | 639 |
| Cc1noc2nc(-c3ccccc3F)nc(Nc3ccncc3)c12 [Compound 12] | 1380 |
| Cc1cnccc1Nc1nc(-c2cc(Cl)ccc2F)nc2c1CCCC2 [Compound 38, [2-(5-Chloro-2-fluorophenyl)-5,6,7,8-tetrahydroquinazolin-4-yl]-(3-methylpyridin-4-yl)-amine] | 252 |
| Fc1ccc(Cl)cc1-c1nc2c(c(Nc3ccncc3C(F)(F)F)n1)CCC2 [Compound 36] | 170 |
| CCN(CC)CCNC(=O)c1cnccc1Nc1nc(-c2cc(Cl)ccc2F)nc2c1CCCC2 [Compound 59] | 77.9 |
| Fc1ccccc1-c1cc(Nc2ccncn2)n2ncnc2n1 [Compound 83] | 16900 |
| C[C@@H](O)CNC(=O)c1cnccc1Nc1nc(-c2cc(Cl)ccc2F)nc2c1CC(C)(C)C2 [Compound 64] | 1810 |
| O=C(NC1CC1)c1cnccc1Nc1nc(-c2cc(Cl)ccc2F)nc2c1CCCC2 [Compound 45, 4-[2-(5-Chloro-2-fluorophenyl)-5,6,7,8-tetrahydroquinazolin-4-ylamino]-N-cyclopropyl nicotinamide] | 683 |
| CCOC(=O)c1cnccc1Nc1nc(-c2cc(Cl)ccc2F)nc2c1C(C)CC2 (stereo not drawn) [Compound 48, 4-[2-(5-Chloro-2-fluoro-phenyl)-5-methyl-6,7-dihydro-5H-cyclopentapyrimidin-4-ylamino]-nicotinic acid ethyl ester] | 262 |
| CC1(C)Cc2nc(-c3cc(Cl)ccc3F)nc(Nc3ccncc3C(=O)NC[C@H](O)CO)c2C1 [Compound 65] | 2790 |
| NC(=O)c1cnccc1Nc1nc(-c2cc(Cl)ccc2F)nc2c1COC2 [Compound 34, 4-[2-(5-Chloro-2-fluoro-phenyl)-5,7-dihydro-furo[3,4-d]pyrimidin-4-ylamino]-nicotinic amide] | 2250 |
| O=C(NCC1CC1)c1cnccc1Nc1nc(-c2cc(Cl)ccc2F)nc2c1CCC2 [Compound 42] | 1330 |
| Cc1cnccc1Nc1nc(-c2cc(Cl)ccc2F)nc2c1CN(Cc1ccccc1)CC2 [Compound 30] | 16100 |
| CCOC(=O)c1cnccc1Nc1nc(-c2cc(Cl)ccc2F)nc2c1CCC2 [Compound 32] | 6500 |
| Cc1cnccc1Nc1nc(-c2cc(Cl)ccc2F)nc2c1CCNC2 [Compound 23] | 1180 |
| COC(=O)c1cnccc1Nc1nc(-c2ccccc2)nc2c1CCC2 [Compound 67] | 8850 |
| CNC(=O)c1cnccc1Nc1nc(-c2ccccc2)nc2c1CCC2 [Compound 68] | 289 |
| CNC(=O)c1cnccc1Nc1nc(-c2cc(Cl)ccc2F)nc2c1OCC2 [Compound 44, 4-[2-(5-Chloro-2-fluorophenyl)-6,7-dihydrofuro[3,2-d]pyrimidin-4-ylamino]-N-methyl nicotinamide] | 148 |
| CCc1noc2nc(-c3cc(Cl)ccc3F)nc(Nc3ccncc3)c12 [Compound 11] | 1350 |
| Cc1cnccc1Nc1nc(-c2cc(Cl)ccc2F)nn2cccc12 [Compound 80] | 849 |

Further molecules by falling IC50, results first:

| IC50 [nM] | Compound |
| --- | --- |
| 12800 | Cc1noc2nc(-c3ccccc3Cl)nc(Nc3ccncc3)c12 [Compound 14] |
| 8840 | Fc1ccccc1-c1cc(Nc2ccncc2)n2ncnc2n1 [Compound 82] |
| 6460 | O=C(NCCCN1CCCC1=O)c1cnccc1Nc1nc(-c2cc(Cl)ccc2F)nc2c1CCC2 [Compound 72] |
| 5490 | CCN(CC)CCNC(=O)c1cnccc1Nc1nc(-c2ccccc2F)nc2c1CCC2 [Compound 79] |
| 5070 | CCc1noc2nc(-c3cccc(Cl)c3)nc(Nc3ccncc3)c12 [Compound 7] |
| 4650 | Cc1noc2nc(-c3ccc(Cl)cc3)nc(Nc3ccncc3)c12 [Compound 17] |
| 3100 | Cc1cnccc1Nc1nc(-c2cc(Cl)ccc2F)nc2c1COC2 [Compound 33, [2-(5-Chloro-2-fluorophenyl)-5,7-dihydrofuro[3,4-d]pyrimidin-4-yl]-(3-methyl-pyridin-4-yl)-amine] |
| 2460 | O=C(NCCN1CCCCC1)c1cnccc1Nc1nc(-c2cc(Cl)ccc2F)nc2c1CCC2 [Compound 78] |
| 2440 | Cc1noc2nc(-c3cccc(I)c3)nc(Nc3ccncc3)c12 [Compound 10] |
| 2420 | Cc1cnccc1Nc1nc(-c2cc(Cl)ccc2F)nc2c1CC(C)(C)C2 [Compound 60, [2-(5-Chloro-2-fluoro-phenyl)-6,6-dimethyl-6.7-dihydro-5H-cyclopentapyrimidin-4-yl]-(3-methyl-pyridin-4-yl)-amine] |
| 2240 | O=C(c1cnccc1Nc1nc(-c2cc(Cl)ccc2F)nc2c1CCC2)N1CCCC1 [Compound 37] |
| 1350 | O=C(NC1CC1)c1cnccc1Nc1nc(-c2cc(Cl)ccc2F)nc2c1CCC2 [Compound 41] |
| 1250 | CNCCNC(=O)c1cnccc1Nc1nc(-c2cc(Cl)ccc2F)nc2c1CC(C)(C)C2 [Compound 66] |
| 1020 | Cc1noc2nc(-c3cccc(Br)c3)nc(Nc3ccncc3)c12 [Compound 15] |
| 844 | O=C(NCCCn1ccnc1)c1cnccc1Nc1nc(-c2cc(Cl)ccc2F)nc2c1CCC2 [Compound 71] |
| 780 | Cc1noc2nc(-c3cccc(Cl)c3)nc(Nc3ccncc3)c12 [Compound 3] |
| 486 | O=C(NO)c1cnccc1Nc1nc(-c2cc(Cl)ccc2F)nc2c1CCC2 [Compound 54] |

| IC50 [nM] | Compound |
| --- | --- |
| 436 | C[C@H](O)CNC(=O)c1cnccc1Nc1nc(-c2cc(Cl)ccc2F)nc2c1CCCC2 [Compound 57] |
| 417 | C[C@H](O)CNC(=O)c1cnccc1Nc1nc(-c2cc(Cl)ccc2F)nc2c1CCC2 [Compound 53] |
| 365 | CNCCNC(=O)c1cnccc1Nc1nc(-c2cc(Cl)ccc2F)nc2c1CCC2 [Compound 56] |
| 309 | CN1CCCC1CCNC(=O)c1cnccc1Nc1nc(-c2cc(Cl)ccc2F)nc2c1CCC2 (stereo not drawn) [Compound 73] |
| 270 | Cc1noc2nc(-c3cc(Br)ccc3F)nc(Nc3ccncc3)c12 [Compound 6] |
| 267 | Cc1noc2nc(-c3cc(Cl)ccc3F)nc(Nc3ccncc3)c12 [Compound 8] |
| 238 | C[C@H](O)CNC(=O)c1cnccc1Nc1nc(-c2cc(Cl)ccc2F)nc2c1CCC2 [Compound 52] |
| 205 | CC1(C)Cc2nc(-c3cc(Cl)ccc3F)nc(Nc3ccncc3C(N)=O)c2C1 [Compound 62, 4-[2-(5-Chloro-2-fluoro-phenyl)-6,6-dimethyl-6,7-dihydro-5H-cyclopentapyrimidin-4-ylamino]-nicotinamide] |
| 115 | CC1CCCCN1CCCNC(=O)c1cnccc1Nc1nc(-c2cc(Cl)ccc2F)nc2c1CCC2 (stereo not drawn) [Compound 74] |
| 104 | Cc1cnccc1Nc1nc(-c2cc(Cl)ccc2F)nc2c1C(C)CC2 (stereo not drawn) [Compound 43, [2-(5-Chloro-2-fluorophenyl)-5-methyl-6,7-dihydro-5H-cyclopentapyrimidin-4-yl]-(3-methyl-pyridin-4-yl)-amine] |
| 102 | CNC(=O)c1cnccc1Nc1nc(-c2cc(Cl)ccc2F)nc2c1CC(C)(C)C2 [Compound 63] |
| 93 | Cc1cnccc1Nc1nc(-c2cc(Cl)ccc2F)nc2c1CCC2 [Compound 20] |
| 85.3 | CC1CCc2nc(-c3cc(Cl)ccc3F)nc(Nc3ccncc3C(=O)O)c21 (stereo not drawn) [Compound 49, 4-[2-(5-Chloro-2-fluorophenyl)-5-methyl-6,7-dihydro-5H-cyclopentapyrimidin-4-ylamino]-nicotinic acid] |
| 62.6 | NNC(=O)c1cnccc1Nc1nc(-c2cc(Cl)ccc2F)nc2c1CCC2 [Compound 58] |
| 53 | NC(=O)c1cnccc1Nc1nc(-c2cc(Cl)ccc2F)nc2c1CCC2 [Compound 21] |
| 50.1 | CNC(=O)c1cnccc1Nc1nc(-c2cc(Cl)ccc2F)nc2c1CCCC2 [Compound 40] |
| 13 | CC1CCc2nc(-c3cc(Cl)ccc3F)nc(Nc3ccncc3C(N)=O)c21 (stereo not drawn) [Compound 46] |
